Structures are written as SMILES.

The subject of one assay is castrated male Sprague Dawley rats. Kind of assay: Ventral Prostate and Seminal Vesicle Weight In Vivo Assay. Also: key: active: the non weight adjusted prostate weight was ≦40 mg or the % Inhibition prostate weight, body weight adjusted was ≧40%@2 mg/day dosage; inactive: did not meet the specified criteria defined above. Particulars: inhibition of testosterone-enhanced prostate weight; immature castrated rats, once daily for five days, usually orally 40 mg/kg, with testosterone propionate 2 mg/kg s.c. As to the method: Ventral Prostate and Seminal Vesicle Weight In Vivo Assay
Immature (approximately 50 g) castrated male Sprague Dawley rats (Charles River) were treated once daily for five days with test compound (usually given orally at 40 mg/kg in a volume of 0.3 mL, in 30% cyclodextrin or 0.5% methylcellulose vehicle) and with testosterone propionate (given subcutaneously by injection at the nape of the neck at 2 mg/kg, in a volume of 0.1 mL in sesame oil). On the sixth day, the rats were euthanized by asphyxiation in carbon dioxide. Ventral prosatates and seminal vesicles were removed and their wet weights determined. Test compound activity was determined as the percent inhibition of testosterone-enhanced tissue weights, with a vehicle-treated control group set to zero percent and a testosterone alone-treated control group set to 100%.
Representative compounds of the present invention were tested according to the procedure described, with results as listed in Table 7 below. A test compound is listed as “active” if the non weight adjusted prostate weight was ≦40 mg or the % Inhibition prostate weight, body weight adjusted was ≧40%@2 mg/day dosage. ID50's, if determined, of ≦15 mg/day also indicated an “active” compound.
`CC(O)(CC#N)c1nc2cc(Cl)c(Cl)cc2[nH]1` (centres unmarked) [Compound 7, 3-(5,6-dichloro-1H-benzoimidazol-2-yl)-3-hydroxy-butyronitrile]: the outcome was active.

`COc1cccc(Cn2c(CC(F)(F)F)nc3cc(Cl)c(Cl)cc32)c1` [Compound 129, 5,6-Dichloro-1-(3-methoxy-benzyl)-2-(2,2,2-trifluoro-ethyl)-1H-benzoimidazole]: the result was inactive.

As for `FC(F)(F)Cc1nc2cc(Cl)c(Cl)cc2n1Cc1ccc(-n2cccn2)cc1` [Compound 131, 5,6-Dichloro-1-(4-pyrazol-1-yl-benzyl)-2-(2,2,2-trifluoro-ethyl)-1H-benzoimidazole], the result was inactive.

As to `FC(F)(F)Cc1nc2cc(Cl)c(Cl)cc2n1Cc1ccc(-c2csnn2)cc1` [Compound 132, 5,6-Dichloro-1-(4-[1,2,3]thiadiazol-4-yl-benzyl)-2-(2,2,2-trifluoro-ethyl)-1H-benzoimidazole], the result was inactive.

As for `Cc1oncc1Cn1c(CC(F)(F)F)nc2cc(Cl)c(Cl)cc21` [Compound 133, 5,6-Dichloro-1-(5-methyl-isoxazol-4-ylmethyl)-2-(2,2,2-trifluoro-ethyl)-1H-benzoimidazole], the outcome was active.

For `FC(F)(F)Cc1nc2cc(Cl)c(Cl)cc2n1Cc1cccc(OC(F)(F)F)c1` [Compound 134, 5,6-Dichloro-2-(2,2,2-trifluoro-ethyl)-1-(3-trifluoromethoxy-benzyl)-1H-benzoimidazole], the outcome was inactive.

Regarding `N#Cc1cc2nc(C(O)C(F)(F)F)[nH]c2cc1C(F)(F)F` (centres unmarked) [Compound 135, 2-(2,2,2-Trifluoro-1-hydroxy-ethyl)-6-trifluoromethyl-1H-benzoimdazole-5-carbonitrile], the result was inactive.

`N#Cc1ccc(OCCn2c(CC(F)(F)F)nc3cc(Cl)c(Cl)cc32)cc1` [Compound 136, 4-{2-[5,6-Dichloro-2-(2,2,2-trifluoro-ethyl)-benzoimidazol-1-yl]-ethoxy}-benzonitrile]: the outcome was active.

Turning to `O=[N+]([O-])c1ccccc1Cn1c(CC(F)(F)F)nc2cc(Cl)c(Cl)cc21` [Compound 137, 5,6-Dichloro-1-(2-nitro-benzyl)-2-(2,2,2-trifluoro-ethyl)-1H-benzoimidazole], the outcome was active.

Regarding `FC(F)(F)Cc1nc2cc(Cl)c(Cl)cc2n1Cc1ccc(-n2cccc2)cc1` [Compound 138, 5,6-Dichloro-1-(4-pyrrol-1-yl-benzyl)-2-(2,2,2-trifluoro-ethyl)-1H-benzoimidazole], the outcome was active.

Regarding `O=[N+]([O-])c1cccc(Cn2c(CC(F)(F)F)nc3cc(Cl)c(Cl)cc32)c1` [Compound 139, 5,6-Dichloro-1-(3-nitro-benzyl)-2-(2,2,2-trifluoro-ethyl)-1H-benzoimidazole], the outcome was active.

As for `FC(F)(F)Cc1nc2cc(Cl)c(Cl)cc2n1Cc1ccc(SC(F)(F)F)cc1` [Compound 140, 5,6-Dichloro-2-(2,2,2-trifluoro-ethyl)-1-(4-trifluoromethvlsulfanvl-benzvl)-1H-benzoimidazole], the outcome was inactive.

For `CS(=O)(=O)c1ccc(Cn2c(CC(F)(F)F)nc3cc(Cl)c(Cl)cc32)cc1` [Compound 142, 5,6-Dichloro-1-(4-methanesulfonyl-benzyl)-2-(2,2,2-trifluoro-ethyl)-1H-benzoimidazole], the outcome was inactive.

Regarding `CC/C(Cn1c(CC(F)(F)F)nc2cc(Cl)c(Cl)cc21)=N/O` [Compound 144, 1-[5,6-Dichloro-2-(2,2,2-trifluoro-ethyl)-benzoimidazol-1-yl]-butan-2-one Oxime], the result was active.

For `FC(F)(F)Cc1nc2cc(Cl)c(Cl)cc2n1Cc1ccc(OCc2ccccc2)cc1` [Compound 146, 1-(4-Benzyloxy-benzyl)-5,6-dichloro-2-(2,2,2-trifluoro-ethyl)-1H-benzoimidazole], the outcome was active.

Regarding `COc1ccc(Cn2c(CC(F)(F)F)nc3cc(Cl)c(Cl)cc32)cc1` [Compound 147, 5,6-Dichloro-1-(4-methoxy-benzyl)-2-(2,2,2-trifluoro-ethyl)-1H-benzoimidazole], the outcome was active.

For the compound `CCC(O)Cn1c(CC(F)(F)F)nc2cc(Cl)c(Cl)cc21` (centres unmarked) [Compound 148, 1-[5,6-Dichloro-2-(2,2,2-trifluoro-ethyl)-benzoimidazol-1-yl]-butan-2-ol], the result was active.

`FC(F)(F)Cc1nc2cc(Cl)c(Cl)cc2n1Cc1ccc(Br)cc1` [Compound 149, 1-(4-Bromo-benzyl)-5,6-dichloro-2-(2,2,2-trifluoro-ethyl)-1H-benzoimidazole]: the outcome was active.

Take `CCOC(=O)c1ccc(Cn2c(CC(F)(F)F)nc3cc(Cl)c(Cl)cc32)cc1` [Compound 150, 4-[5,6-Dichloro-2-(2,2,2-trifluoro-ethyl)-benzoimidazol-1-ylmethyl]-benzoic Acid Ethyl Ester]: the result was active.

For the compound `FC(F)(F)Cc1nc2cc(Cl)c(Cl)cc2n1Cc1ccccc1Br` [Compound 151, 1-(2-Bromo-benzyl)-5,6-dichloro-2-(2,2,2-trifluoro-ethyl)-1H-benzoimidazole], the result was active.

As to `FC(c1nc2cc(Cl)c(Cl)cc2[nH]1)C(F)(F)F` (centres unmarked) [Compound 152, 5,6-Dichloro-2-(1,2,22-tetrafluoro-ethyl)-1H-benzoimidazole], the result was active.

On to `O=Cc1ccc(Cn2c(CC(F)(F)F)nc3cc(Cl)c(Cl)cc32)cc1` [Compound 153, 4-[5,6-Dichloro-2-(trifluoro-ethyl)-benzoimidazol-1-ylmethyl]-benzaldehyde], for which the result was inactive.

For the compound `FC(F)(F)C(F)(F)c1nc2cc(Cl)c(Cl)cc2[nH]1` [Compound 154, 5,6-Dichloro-2-(pentafluoroethyl)-1H-benzoimidazole], the result was inactive.

For the compound `O=[N+]([O-])c1cc2nc(C(O)C(F)(F)F)[nH]c2cc1[N+](=O)[O-]` (centres unmarked) [Compound 155, 1-(5,6-Dinitro-1H-benzoimidazol-2-yl-)2,2,2-trifluoro-ethanol], the outcome was inactive.

`OC(c1nc2cc(Cl)ccc2[nH]1)C(F)(F)F` (centres unmarked) [Compound 156, 1-(5-1H-benzoimidazol-2-yl-)2,2,2-trifluoro-ethanol]: the result was inactive.

`COc1cc2nc(C(O)C(F)(F)F)[nH]c2cc1OC` (centres unmarked) [Compound 157, 1-(5,6-Dimethoxy-1H-benzoimidazol-2-yl-)2,2,2-trifluoro-ethanol]: the result was inactive.

Consider `O=C(c1nc2cc(Cl)c(F)cc2[nH]1)C(F)(F)F` [Compound 159, 1-(5-Chloro-6-fluoro-1H-benzoimidazol-2-yl-)2,2,2-trifluoro-ethanone], for which the result was active.

For `Cc1cc2[nH]c(C(=O)C(F)(F)F)nc2cc1Cl` [Compound 160, 1-(5-Chloro-6-methyl-1H-benzoimidazol-2-yl-)2,2,2-trifluoro-ethanone], the outcome was active.

The next assay has the same test system. Kind of assay: Ventral Prostate and Levator Ani Weight In Vivo Assay. Particulars: mature castrated rats, once daily for 14 days, oral gavage, 30 mg/kg. On the set-up: key: active: greater than or equal to 25% stimulation of levator ani at 30 mg/kg. The method, then: Ventral Prostate and Levator Ani Weight In Vivo Assay
Mature (150 to 200 g) castrated male Sprague Dawley rats (Charles River) were treated once daily for 14 days with test compound (usually administered by oral gavage at up to the desired dosage, up to 30 mg/kg in a volume of 1 mL, in 30% cyclodextrin or 0.5% methylcellulose vehicle), or with testosterone propionate (administered subcutaneously by injection at the nape of the neck at 5 mg/kg, in a volume of 0.1 mL in sesame oil), or with vehicle (1 mL of 30% cyclodextrin or 0.5% methylcellulose, given orally). On the fifteenth day, the rats were euthanized by asphyxiation in carbon dioxide. Ventral prostates and levator ani muscles were removed and their wet weights determined.
Test compound activity was determined as the percent stimulation of tissue weight, with the vehicle-treated control group set to zero percent and the testosterone alone-treated control group set to 100%. A compound was designated as “active” if it produced greater than or equal to 25% stimulation of levator ani at 30 mg/kg.
Regarding `CC(O)(CC#N)c1nc2cc(Cl)c(Cl)cc2[nH]1` (centres unmarked) [Compound 7, 3-(5,6-dichloro-1H-benzoimidazol-2-yl)-3-hydroxy-butyronitrile], the “Activity (percent stimulation of levator ani weight)” value is reported as “active”.

The record behind these values is patent US7566733B2, “Benzimidazole derivatives useful as selective androgen receptor modulators (sarms)” (priority 2004, dated 2009).
